Measurements from patent publication US20250282799A1, “SUBSTITUTED PYRIDO[4,3-d]PYRIMIDINES AS KRAS MODULATORS” (Alterome Therapeutics, Inc., priority 2023, published 2025).

Test system: KRAS G12V dependent lung adenocarcinoma cell line, NCI-H441
Assay: Cellular pERK (Thr202/Tyr204) FRET/HTRF assay
Assay type: cell-based
Details: Homo sapiens, NCI-H441, cellular pERK (Thr202/Tyr204) HTRF, NCI-H441 cells
How it was run: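 NCI-H441 cells (KRAS G12V) plated overnight at 37 °C, then exposed to compounds for 1 hr at 37 °C, 5% CO2; DMSO as negative control. Lysates read by Eu-cryptate/d2 sandwich FRET (665 nm) for ERK1/2 phosphorylated at Thr202/Tyr204; IC50 from curve fit.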

| IC50 [nM] | SMILES |
| --- | --- |
| < 50 | [2H]C([2H])(Oc1nc(N2CCOC[C@H]3[C@H](F)[C@H]32)c2cnc(-c3cc(N)cc4ccc(F)c(C#C)c34)c(Cl)c2n1)[C@@]12CCCN1C[C@H](F)C2 [Example 269, 4-(8-Chloro-4-((1S,7S,8S)-8-fluoro-5-oxa-2-azabicyclo[5.1.0]octan-2-yl)-2-(((2R,7aS)-2-fluorotetrahydro-1H-pyrrolizin-7a(5H)-yl)methoxy-d2)pyrido[4,3-d]pyrimidin-7-yl)-5-ethynyl-6-fluoronaphthalen-2-amine] |
| < 50 | [2H]C([2H])(Oc1nc(N2CCOC[C@H]3[C@H](F)[C@H]32)c2cnc(-c3cc(N)cc(Cl)c3C(F)(F)F)c(F)c2n1)[C@@]12CCCN1C[C@H](F)C2 [Example 272, 3-chloro-5-(8-fluoro-4-((1S,7S,8S)-8-fluoro-5-oxa-2-azabicyclo[5.1.0]octan-2-yl)-2-(((2R,7aS)-2-fluorotetrahydro-1H-pyrrolizin-7a(5H)-yl)methoxy-d2)pyrido[4,3-d]pyrimidin-7-yl)-4-(trifluoromethyl)aniline] |
| < 50 | [2H]c1c(F)c(C#C)c2c(-c3ncc4c(N5CCOC[C@H]6[C@H](F)[C@H]65)nc(OC([2H])([2H])[C@@]56CCCN5C[C@H](F)C6)nc4c3F)cc(N)cc2c1[2H] [Example 273, 5-ethynyl-6-fluoro-4-(8-fluoro-4-((1S,7S,8S)-8-fluoro-5-oxa-2-azabicyclo[5.1.0]octan-2-yl)-2-(((2R,7aS)-2-fluorotetrahydro-1H-pyrrolizin-7a(5H)-yl)methoxy-d2)pyrido[4,3-d]pyrimidin-7-yl)naphthalen-7,8-d2-2-amine] |
| < 50 | [2H]C([2H])(Oc1nc(N2CCOC[C@H]3[C@H](F)[C@H]32)c2cnc(-c3cc(N)cc4ccc(F)c(C#C)c34)c(F)c2n1)[C@@]12CCCN1C[C@H](C#N)C2 [Example 276, (2R,7aS)-7a-(((7-(3-amino-8-ethynyl-7-fluoronaphthalen-1-yl)-8-fluoro-4-((1S,7S,8S)-8-fluoro-5-oxa-2-azabicyclo[5.1.0]octan-2-yl)pyrido[4,3-d]pyrimidin-2-yl)oxy)methyl-d2)hexahydro-1H-pyrrolizine-2-carbonitrile] |
| < 50 | C#Cc1c(F)ccc2cc(N)cc(-c3ncc4c(N5CCOC[C@H]6[C@H](F)[C@H]65)nc(OC[C@@]56CCCN5[C@H](C)[C@H](F)C6)nc4c3F)c12 [Example 277, 5-ethynyl-6-fluoro-4-(8-fluoro-2-(((2R,3R,7aS)-2-fluoro-3-methyltetrahydro-1H-pyrrolizin-7a(5H)-yl)methoxy)-4-((1S,7S,8S)-8-fluoro-5-oxa-2-azabicyclo[5.1.0]octan-2-yl)pyrido[4,3-d]pyrimidin-7-yl)naphthalen-2-amine] |
| < 50 | C#Cc1c(F)ccc2cc(N)cc(-c3ncc4c(N5CCOC[C@H]6[C@H](F)[C@H]65)nc(OC[C@@]56CCCN5[C@@H](C)[C@H](F)C6)nc4c3F)c12 [Example 278, 5-ethynyl-6-fluoro-4-(8-fluoro-2-(((2R,3S,7aS)-2-fluoro-3-methyltetrahydro-1H-pyrrolizin-7a(5H)-yl)methoxy)-4-((1S,7S,8S)-8-fluoro-5-oxa-2-azabicyclo[5.1.0]octan-2-yl)pyrido[4,3-d]pyrimidin-7-yl)naphthalen-2-amine] |
| < 50 | C#Cc1c(F)ccc2cc(O)cc(-c3ncc4c(N5CCOC[C@H]6[C@H](F)[C@H]65)nc(OC[C@H]5CCCN5C)nc4c3F)c12 [Example 284, 5-ethynyl-6-fluoro-4-(8-fluoro-4-((1S,7S,8S)-8-fluoro-5-oxa-2-azabicyclo[5.1.0]octan-2-yl)-2-(((R)-1-methylpyrrolidin-2-yl)methoxy)pyrido[4,3-d]pyrimidin-7-yl)naphthalen-2-ol] |
| < 50 | C#Cc1c(F)ccc2cc(O)cc(-c3ncc4c(N5CCOC[C@H]6[C@H](F)[C@H]65)nc(OC[C@@H]5CCCN5C)nc4c3F)c12 [Example 285, 5-ethynyl-6-fluoro-4-(8-fluoro-4-((1S,7S,8S)-8-fluoro-5-oxa-2-azabicyclo[5.1.0]octan-2-yl)-2-(((S)-1-methylpyrrolidin-2-yl)methoxy)pyrido[4,3-d]pyrimidin-7-yl)naphthalen-2-ol] |
| < 50 | [2H]C([2H])(Oc1nc(N2CCOC[C@H]3[C@H](F)[C@H]32)c2cnc(-c3cc(N)cc4ccc(F)c(C#C)c34)c(F)c2n1)[C@@]12CCCN1C[C@@H](C#N)C2 [Example 286, (2S,7aS)-7a-(((7-(3-amino-8-ethynyl-7-fluoronaphthalen-1-yl)-8-fluoro-4-((1S,7S,8S)-8-fluoro-5-oxa-2-azabicyclo[5.1.0]octan-2-yl)pyrido[4,3-d]pyrimidin-2-yl)oxy)methyl-d2)hexahydro-1H-pyrrolizine-2-carbonitrile] |
| < 50 | C#Cc1c(F)ccc2cc(N)cc(-c3ncc4c(N5CCOC[C@H]6[C@H](F)[C@H]65)nc(OC[C@@]56CC[C@@H](C)N5C[C@H](F)C6)nc4c3F)c12 [Example 287, 5-Ethynyl-6-fluoro-4-(8-fluoro-2-(((2R,5R,7aS)-2-fluoro-5-methyltetrahydro-1H-pyrrolizin-7a(5H)-yl)methoxy)-4-((1S,7S,8S)-8-fluoro-5-oxa-2-azabicyclo[5.1.0]octan-2-yl)pyrido[4,3-d]pyrimidin-7-yl)naphthalen-2-amine] |
| < 50 | C#Cc1c(F)ccc2cc(N)cc(-c3ncc4c(N5CCOC[C@H]6[C@H](F)[C@H]65)nc(OC[C@@H]5CCCN5C)nc4c3F)c12 [Example 288, 5-ethynyl-6-fluoro-4-(8-fluoro-4-((1S,7S,8S)-8-fluoro-5-oxa-2-azabicyclo[5.1.0]octan-2-yl)-2-(((S)-1-methylpyrrolidin-2-yl)methoxy)pyrido[4,3-d]pyrimidin-7-yl)naphthalen-2-amine] |

The next lines start with the compound.

| SMILES | IC50 [nM] |
| --- | --- |
| [2H]C([2H])(Oc1nc(N2CCOC[C@H]3[C@H](F)[C@H]32)c2cnc(-c3cc(N)c(F)c(C4CC4)c3C(F)(F)F)c(F)c2n1)[C@@]12CCCN1C[C@H](F)C2 [Example 270, 3-cyclopropyl-2-fluoro-5-(8-fluoro-4-((1S,7S,8S)-8-fluoro-5-oxa-2-azabicyclo[5.1.0]octan-2-yl)-2-(((2R,7aS)-2-fluorotetrahydro-1H-pyrrolizin-7a(5H)-yl)methoxy-d2)pyrido[4,3-d]pyrimidin-7-yl)-4-(trifluoromethyl)aniline] | 50 to 500 |
| [2H]C([2H])(Oc1nc(N2CCOC[C@H]3[C@H](F)[C@H]32)c2cnc(-c3c(F)c(N)cc(C)c3C(F)(F)F)c(F)c2n1)[C@@]12CCCN1C[C@H](F)C2 [Example 271, 2-fluoro-3-(8-fluoro-4-((1S,7S,8S)-8-fluoro-5-oxa-2-azabicyclo[5.1.0]octan-2-yl)-2-(((2R,7aS)-2-fluorotetrahydro-1H-pyrrolizin-7a(5H)-yl)methoxy-d2)pyrido[4,3-d]pyrimidin-7-yl)-5-methyl-4-(trifluoromethyl)aniline] | 50 to 500 |
| [2H]C([2H])(Oc1nc(N2CCOC[C@H]3[C@H](F)[C@H]32)c2cnc(-c3c(F)c(N)c(F)c(C)c3C(F)(F)F)c(F)c2n1)[C@@]12CCCN1C[C@H](F)C2 [Example 279, 2,6-difluoro-3-(8-fluoro-4-((1S,7S,8S)-8-fluoro-5-oxa-2-azabicyclo[5.1.0]octan-2-yl)-2-(((2R,7aS)-2-fluorotetrahydro-1H-pyrrolizin-7a(5H)-yl)methoxy-d2)pyrido[4,3-d]pyrimidin-7-yl)-5-methyl-4-(trifluoromethyl)aniline] | 50 to 500 |
| C#Cc1c(F)ccc2cc(O)cc(-c3ncc4c(N5CCCO[C@@H]6C[C@@H]65)nc(OC[C@H]5CCCN5C)nc4c3F)c12 [Example 280, 4-(4-((1R,7S)-2-oxa-6-azabicyclo[5.1.0]octan-6-yl)-8-fluoro-2-(((R)-1-methylpyrrolidin-2-yl)methoxy)pyrido[4,3-d]pyrimidin-7-yl)-5-ethynyl-6-fluoronaphthalen-2-ol] | 50 to 500 |
| C#Cc1c(F)ccc2cc(O)cc(-c3ncc4c(N5CCCO[C@H]6C[C@H]65)nc(OC[C@@]5(C)CCCN5)nc4c3F)c12 [Example 281, 4-(4-((1S,7R)-2-oxa-6-azabicyclo[5.1.0]octan-6-yl)-8-fluoro-2-(((R)-2-methylpyrrolidin-2-yl)methoxy)pyrido[4,3-d]pyrimidin-7-yl)-5-ethynyl-6-fluoronaphthalen-2-ol] | 500 to 10000 |
| C#Cc1c(F)ccc2cc(O)cc(-c3ncc4c(N5CCCO[C@@H]6C[C@@H]65)nc(OC[C@@]5(C)CCCN5)nc4c3F)c12 [Example 282, 4-(4-((1R,7S)-2-oxa-6-azabicyclo[5.1.0]octan-6-yl)-8-fluoro-2-(((R)-2-methylpyrrolidin-2-yl)methoxy)pyrido[4,3-d]pyrimidin-7-yl)-5-ethynyl-6-fluoronaphthalen-2-ol] | 500 to 10000 |
| C#Cc1c(F)ccc2cc(O)cc(-c3ncc4c(N5CCCO[C@H]6C[C@H]65)nc(OC[C@@]5(C)CCCN5C)nc4c3F)c12 [Example 283, 4-(4-((1S,7R)-2-oxa-6-azabicyclo[5.1.0]octan-6-yl)-2-(((R)-1,2-dimethylpyrrolidin-2-yl)methoxy)-8-fluoropyrido[4,3-d]pyrimidin-7-yl)-5-ethynyl-6-fluoronaphthalen-2-ol] | < 50 |
| [2H]C([2H])(Oc1nc(N2CCOC[C@H]3[C@H](F)[C@H]32)c2cnc(-c3cc(N)c(F)c(Cl)c3C(F)(F)F)c(F)c2n1)[C@@]12CCCN1C[C@H](F)C2 [Example 289, 3-chloro-2-fluoro-5-(8-fluoro-4-((1S,7S,8S)-8-fluoro-5-oxa-2-azabicyclo[5.1.0]octan-2-yl)-2-(((2R,7aS)-2-fluorotetrahydro-1H-pyrrolizin-7a(5H)-yl)methoxy-d2)pyrido[4,3-d]pyrimidin-7-yl)-4-(trifluoromethyl)aniline] | < 50 |
